Assay results as given in US20080070949A1, “POLYMORPHS OF RIMONABANT” (Cipla Limited, priority 2006, published 2008).

How the values were obtained:
Format in all cases: physicochemical
[1] = Accelerated stability testing; settings: 40±2° C., 75±5% relative humidity
Method: (§1) Long term and accelerated stability testing was carried out on crystalline rimonabant Form C.
(§2) Each sample was hermetically sealed in double HMHDPE bags and placed in fibre drum. Quantity of sample=0.8 gm per analysis. Storage conditions (long term)=30±2C., 65±5% relative humidity. Storage conditions (accelerated)=40±2° C., 75±5% relative humidity.

[2] = Long term stability testing; settings: 30±2C., 65±5% relative humidity
Method: as §1, §2

[3] = Comparative intrinsic dissolution study (HPLC-UV method); settings: 900 ml of 1% Sodium Lauryl Sulphate in 0.05 M NaH2PO4 buffer pH 6.6, 50 RPM, 37° C.
Method: Intrinsic dissolution was studied using an HPLC-UV method with the following parameters:
Dissolution media:—900 ml of 1% Sodium Lauryl Sulphate (SLS) in buffer.
Buffer: 0.05 M NaH2PO4 pH 6.6 with NaOH
Mobile Phase:Buffer:Acetonitrile 30:70 Buffer 0.02 M NaH2PO4 0.1% Triethylamine pH 2.5 with phosphoric acid.
Column: YMC Pack Pro 18 15 cm.
Pressure applied for preparation of pellet=2.5 tonns for 5 mins.
Filter=Whatman 0.45 micron.
The results of the intrinsic dissolution study are illustrated in the graph in FIG. 5.

[4] = initially, at 1 month, at 2 months and at 3 months

Compound: Cc1c(C(=O)NN2CCCCC2)nn(-c2ccc(Cl)cc2Cl)c1-c1ccc(Cl)cc1 [Form C, N-piperidino-5-(4-chlorophenyl)-1-(2,4-dichlorophenyl)-4-methyl-3-pyrazolecarboxamide]
- Assay (98.0%–102.0% w/w) ([1]; 1 Month): 101.36 % w/w
- Chromatographic purity by HPLC Individual impurity NMT 0.10% ([1]; 1 Month): 0.08%
- Chromatographic purity by HPLC Total impurities NMT 1.00% ([1]; 1 Month): 0.16%
- Water Content (By KF) NMT 5.0% w/w ([1]; 1 Month): 3.94 % w/w
- Assay (98.0%–102.0% w/w) ([1]; 2 Months): 100.67 % w/w
- Chromatographic purity by HPLC Individual impurity NMT 0.10% ([1]; 2 Months): 0.08%
- Chromatographic purity by HPLC Total impurities NMT 1.00% ([1]; 2 Months): 0.21%
- Water Content (By KF) NMT 5.0% w/w ([1]; 2 Months): 4.27 % w/w
- Assay (98.0%–102.0% w/w) ([1]; 3 Months): 99.45 % w/w
- Chromatographic purity by HPLC Individual impurity NMT 0.10% ([1]; 3 Months): 0.08%
- Chromatographic purity by HPLC Total impurities NMT 1.00% ([1]; 3 Months): 0.20%
- Water Content (By KF) NMT 5.0% w/w ([1]; 3 Months): 4.07 % w/w
- Assay (98.0%–102.0% w/w) ([1]; Initial): 99.86 % w/w
- Chromatographic purity by HPLC Individual impurity NMT 0.10% ([1]; Initial): 0.08%
- Chromatographic purity by HPLC Total impurities NMT 1.00% ([1]; Initial): 0.20%
- Water Content (By KF) NMT 5.0% w/w ([1]; Initial): 3.08 % w/w
- description of sample [1, 4]: white colour powder
- polymorphic identity confirmed by XRPD, IR and DSC [1, 4]: Form C
- Assay (98.0%–102.0% w/w) ([2]; Initial): 99.86 % w/w
- Chromatographic purity by HPLC Individual impurity NMT 0.10% ([2]; Initial): 0.08%
- Chromatographic purity by HPLC Total impurities NMT 1.00% ([2]; Initial): 0.20%
- Water Content (By KF) NMT 5.0% w/w ([2]; Initial): 3.08 % w/w
- description of sample ([2]; initially and at 3 months): white colour powder
- polymorphic identity confirmed by XRPD, IR and DSC ([2]; initially and at 3 months): Form C
- Assay (98.0%–102.0% w/w) ([2]; period of keeping (3 months)): 99.13 % w/w
- Chromatographic purity by HPLC Individual impurity NMT 0.10% ([2]; period of keeping (3 months)): 0.08%
- Chromatographic purity by HPLC Total impurities NMT 1.00% ([2]; period of keeping (3 months)): 0.20%
- Remarks ([2]; period of keeping (3 months)): Product is stable
- Water Content (By KF) NMT 5.0% w/w ([2]; period of keeping (3 months)): 3.08 % w/w

Compound: Cc1c(C(=O)NN2CCCCC2)nn(-c2ccc(Cl)cc2Cl)c1-c1ccc(Cl)cc1 [amorphous, N-piperidino-5-(4-chlorophenyl)-1-(2,4-dichlorophenyl)-4-methyl-3-pyrazolecarboxamide]
- order of intrinsic dissolution [3]: amorphous >Form C >Form I
